Where two headings read alike, the source gives them in different places.
How the values were obtained:
Format in all cases: in vivo
[1] = system: barnyardgrass (Echinochloa crus-galli); experiment: Test A pre-/postemergence greenhouse herbicide test, visual injury rating 0-100; details: for pest or weed control at 500 g/ha: 500 g ai/ha
Summary of the method: (§1)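 Formulated in non-phytotoxic solvent with surfactant, compounds were applied pre- and postemergence simultaneously. Soil: loam–sand blend. Visual injury, 0 = no effect to 100 = complete control, ~10 days.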

[2] = system: corn (Zea mays); experiment: as above; details: for plant injury at 500 g/ha: 500 g ai/ha
Summary of the method: as §1

[3] = system: giant foxtail (Setaria faberii); experiment: as above; details: for pest or weed control at 500 g/ha: 500 g ai/ha
Summary of the method: as §1

[4] = system: large (Lg) crabgrass (Digitaria sanguinalis); experiment: as above; details: for pest or weed control at 500 g/ha: 500 g ai/ha
Summary of the method: as §1

[5] = system: morningglory (Ipomoea spp.); experiment: as above; details: for pest or weed control at 500 g/ha: 500 g ai/ha
Summary of the method: as §1

[6] = system: pigweed (Amaranthus retroflexus); experiment: as above; details: for pest or weed control at 500 g/ha: 500 g ai/ha
Summary of the method: as §1

[7] = system: velvetleaf (Abutilon theophrasti); experiment: as above; details: for pest or weed control at 500 g/ha: 500 g ai/ha
Summary of the method: as §1

[8] = system: wheat (Triticum aestivum); experiment: as above; details: for plant injury at 500 g/ha: 500 g ai/ha
Summary of the method: as §1

[9] = system: Italian ryegrass (Lolium multiflorum); experiment: Test C pre-/postemergence greenhouse test, plant response rating 0-100; details: Lolium multiflorum; for pest or weed control at 62 g/ha: 62 g ai/ha; for pest or weed control at 125 g/ha: 125 g ai/ha; for pest or weed control at 250 g/ha: 250 g ai/ha; for pest or weed control at 500 g/ha: 500 g ai/ha
Text: (§2) Seeds of plant species selected from blackgrass (Alopecurus myosuroides), Italian ryegrass (Lolium multiflorum), winter wheat (Triticum aestivum), galium (catchweed bedstraw, Galium aparine), corn (Zea mays), large (Lg) crabgrass (Digitaria sanguinalis), giant foxtail (Setaria faberii), johnsongrass (Sorghum halepense), lambsquarters (Chenopodium album), morningglory (Ipomoea coccinea), yellow nutsedge (Cyperus esculentus), pigweed (Amaranthus retroflexus), ragweed (common ragweed, Ambrosia elatior), soybean (Glycine max), barnyardgrass (Echinochloa crus-galli), oilseed rape (Brassica napus), waterhemp (common waterhemp, Amaranthus rudis), and velvetleaf (Abutilon theophrasti) were planted into a blend of loam soil and sand and treated preemergence with test chemicals formulated in a non-phytotoxic solvent mixture which included a surfactant.
(§3) At the same time, plants selected from these crop and weed species and also winter barley (Hordeum vulgare), bermudagrass (Cynodon dactylon), downy bromegrass (Bromus tectorum), canarygrass (Phalaris minor), cocklebur (common cocklebur, Xanthium strumarium), woolly cupgrass (Eriochloa villosa), deadnettle (henbit deadnettle, Lamium amplexicaule), green foxtail (Setaria viridis), goosegrass (Eleusine indica), surinam grass (Brachiaria decumbens), windgrass (Apera spica-venti), chickweed (common chickweed, Stellaria media), kochia (Kochia scoparia), and wild oat (Avena fatua), were planted in pots containing Redi-Earth® planting medium (Scotts Company, 14111 Scottslawn Road, Marysville, Ohio 43041) comprising spaghnum peat moss, vermiculite, wetting agent and starter nutrients and treated with postemergence applications of test chemicals formulated in the same manner. Plants ranged in height from 2 to 18 cm (1- to 4-leaf stage) for postemergence treatments. Treated plants and controls were maintained in a greenhouse for 13 to 15 days, after which time all species were compared to controls and visually evaluated. Plant response ratings, summarized in Table C, are based on a scale of 0 to 100 where 0 is no effect and 100 is complete control. A dash (-) response means no test result.

[10] = system: galium (catchweed bedstraw, Galium aparine); experiment: as above; details: Galium; for pest or weed control at 62 g/ha: 62 g ai/ha; for pest or weed control at 125 g/ha: 125 g ai/ha; for pest or weed control at 250 g/ha: 250 g ai/ha; for pest or weed control at 500 g/ha: 500 g ai/ha
Text: as §2, §3

[11] = system: morningglory (Ipomoea coccinea); experiment: as above; details: Ipomoea; for pest or weed control at 62 g/ha: 62 g ai/ha; for pest or weed control at 125 g/ha: 125 g ai/ha; for pest or weed control at 250 g/ha: 250 g ai/ha; for pest or weed control at 500 g/ha: 500 g ai/ha
Text: as §2, §3

[12] = system: ragweed (common ragweed, Ambrosia elatior); experiment: as above; details: Ambrosia artemisiifolia; for pest or weed control at 62 g/ha: 62 g ai/ha; for pest or weed control at 125 g/ha: 125 g ai/ha; for pest or weed control at 250 g/ha: 250 g ai/ha; for pest or weed control at 500 g/ha: 500 g ai/ha
Text: as §2, §3

[13] = system: velvetleaf (Abutilon theophrasti); experiment: as above; details: Abutilon theophrasti; for pest or weed control at 62 g/ha: 62 g ai/ha; for pest or weed control at 125 g/ha: 125 g ai/ha; for pest or weed control at 250 g/ha: 250 g ai/ha; for pest or weed control at 500 g/ha: 500 g ai/ha
Text: as §2, §3

[14] = post-emergence, Postemergence, read-out: Plant response rating (0 to 100), Ryegrass, Italian
[15] = post-emergence, Postemergence, scale 0 to 100
[16] = pre-emergence, Preemergence, read-out: Plant response rating, Ryegrass, Italian
[17] = post-emergence, Postemergence, read-out: Plant response rating (0 to 100), Galium
[18] = pre-emergence, Preemergence, read-out: Plant response rating, Galium
[19] = post-emergence, Postemergence, read-out: Plant response rating (0 to 100), Morningglory
[20] = pre-emergence, Preemergence, read-out: Plant response rating, Morningglory
[21] = post-emergence, Postemergence, read-out: Plant response rating (0 to 100), Ragweed
[22] = pre-emergence, Preemergence, read-out: Plant response rating, Ragweed
[23] = post-emergence, Postemergence, read-out: Plant response rating (0 to 100), Velvetleaf
[24] = pre-emergence, Preemergence, read-out: Plant response rating, Velvetleaf

In the case of `CCOC(OCC)(c1ccccc1)c1c[nH]nc1-c1cc(Cl)cc(Cl)c1` [Compound 14, 3-(3,5-dichlorophenyl)-4-(diethoxyphenylmethyl)-1H-pyrazole], the pest or weed control at 125 g/ha ([1]; Echinochloa crus-galli, post-emergence, 240 h, Postemergence, 125 g ai/ha, read-out: Plant response rating (0 to 100 scale), Barnyardgrass) is reported as 0%, the pest or weed control at 500 g/ha ([1]; Echinochloa crus-galli, post-emergence, 240 h, Postemergence, read-out: Plant response rating (0 to 100 scale), Barnyardgrass) is reported as 0% and the pest or weed control at 500 g/ha ([1]; Echinochloa crus-galli, pre-emergence, 240 h, Preemergence, read-out: Plant response rating (0 to 100 scale), Barnyardgrass) is reported as 0%. The “Barnyardgrass plant response rating (0 = no effect, 100 = complete control)” value ([1]; Preemergence, 125 g ai/ha) was 0, the “Corn plant response rating (0 = no effect, 100 = complete control)” value ([2]; Preemergence, 125 g ai/ha) was 0 and the plant injury at 125 g/ha ([2]; Zea mays, post-emergence, 240 h, Postemergence, 125 g ai/ha, read-out: Plant response rating (0 to 100 scale), Corn) was 0%. The plant injury at 500 g/ha ([2]; Zea mays, post-emergence, 240 h, Postemergence, read-out: Plant response rating (0 to 100 scale), Corn) was 0%, the plant injury at 500 g/ha ([2]; Zea mays, pre-emergence, 240 h, Preemergence, read-out: Plant response rating (0 to 100 scale), Corn) was 0% and the “Foxtail, Giant plant response rating (0 = no effect, 100 = complete control)” value ([3]; Preemergence, 125 g ai/ha) was 0. The pest or weed control at 125 g/ha ([3]; Setaria faberi, post-emergence, 240 h, Postemergence, 125 g ai/ha, read-out: Plant response rating (0 to 100 scale), Foxtail, Giant) was 0%, the pest or weed control at 500 g/ha ([3]; Setaria faberi, post-emergence, 240 h, Postemergence, read-out: Plant response rating (0 to 100 scale), Foxtail, Giant) was 0% and the pest or weed control at 500 g/ha ([3]; Setaria faberi, pre-emergence, 240 h, Preemergence, read-out: Plant response rating (0 to 100 scale), Foxtail, Giant) was 0%. The pest or weed control at 125 g/ha ([4]; Digitaria sanguinalis, post-emergence, 240 h, Postemergence, 125 g ai/ha, read-out: Plant response rating (0 to 100 scale), Crabgrass, Large) was 0%, the pest or weed control at 500 g/ha ([4]; Digitaria sanguinalis, post-emergence, 240 h, Postemergence, read-out: Plant response rating (0 to 100 scale), Crabgrass, Large) was 0% and the pest or weed control at 500 g/ha ([4]; Digitaria sanguinalis, pre-emergence, 240 h, Preemergence, read-out: Plant response rating (0 to 100 scale), Crabgrass, Large) was 0%. The “Crabgrass, Large plant response rating (0 = no effect, 100 = complete control)” value ([4]; Preemergence, 125 g ai/ha) was 0, the pest or weed control at 125 g/ha ([5]; Ipomoea, post-emergence, 240 h, Postemergence, 125 g ai/ha, read-out: Plant response rating (0 to 100 scale), Morningglory) was 0% and the pest or weed control at 500 g/ha ([5]; Ipomoea, post-emergence, 240 h, Postemergence, read-out: Plant response rating (0 to 100 scale), Morningglory) was 0%. The pest or weed control at 500 g/ha ([5]; Ipomoea, pre-emergence, 240 h, Preemergence, read-out: Plant response rating (0 to 100 scale), Morningglory) was 0%, the “Morningglory plant response rating (0 = no effect, 100 = complete control)” value ([5]; Preemergence, 125 g ai/ha) was 0 and the pest or weed control at 125 g/ha ([6]; Amaranthus retroflexus, post-emergence, 240 h, Postemergence, 125 g ai/ha, read-out: Plant response rating (0 to 100 scale), Pigweed) was 80%. For the same molecule, the pest or weed control at 500 g/ha ([6]; Amaranthus retroflexus, post-emergence, 240 h, Postemergence, read-out: Plant response rating (0 to 100 scale), Pigweed) was 90%, the pest or weed control at 500 g/ha ([6]; Amaranthus retroflexus, pre-emergence, 240 h, Preemergence, read-out: Plant response rating (0 to 100 scale), Pigweed) was 100% and the “Pigweed plant response rating (0 = no effect, 100 = complete control)” value ([6]; Preemergence, 125 g ai/ha) was 70. The pest or weed control at 125 g/ha ([7]; Abutilon theophrasti, post-emergence, 240 h, Postemergence, 125 g ai/ha, read-out: Plant response rating (0 to 100 scale), Velvetleaf) was 80%, the pest or weed control at 500 g/ha ([7]; Abutilon theophrasti, post-emergence, 240 h, Postemergence, read-out: Plant response rating (0 to 100 scale), Velvetleaf) was 90% and the pest or weed control at 500 g/ha ([7]; Abutilon theophrasti, pre-emergence, 240 h, Preemergence, read-out: Plant response rating (0 to 100 scale), Velvetleaf) was 100%. The “Velvetleaf plant response rating (0 = no effect, 100 = complete control)” value ([7]; Preemergence, 125 g ai/ha) was 50, the “Wheat plant response rating (0 = no effect, 100 = complete control)” value ([8]; Preemergence, 125 g ai/ha) was 0 and the plant injury at 125 g/ha ([8]; Triticum aestivum, post-emergence, 240 h, Postemergence, 125 g ai/ha, read-out: Plant response rating (0 to 100 scale), Wheat) was 0%. For the same molecule, the plant injury at 500 g/ha ([8]; Triticum aestivum, post-emergence, 240 h, Postemergence, read-out: Plant response rating (0 to 100 scale), Wheat) was 0%, the plant injury at 500 g/ha ([8]; Triticum aestivum, pre-emergence, 240 h, Preemergence, read-out: Plant response rating (0 to 100 scale), Wheat) was 0% and the pest or weed control at 62 g/ha [9, 14] was 0%. It also gave a pest or weed control at 125 g/ha [9, 14] of 0%, a pest or weed control at 250 g/ha [9, 15] of 0% and a pest or weed control at 500 g/ha [9, 15] of 5%. The pest or weed control at 62 g/ha [9, 16] was 0%, the pest or weed control at 125 g/ha [9, 16] was 0% and the pest or weed control at 250 g/ha ([9]; pre-emergence, Preemergence) was 0%. For the same molecule, the pest or weed control at 500 g/ha ([9]; pre-emergence, Preemergence) was 0%, the pest or weed control at 62 g/ha [10, 17] was 0% and the pest or weed control at 125 g/ha [10, 17] was 30%. For the same molecule, the pest or weed control at 250 g/ha [10, 15] was 50%, the pest or weed control at 500 g/ha [10, 15] was 45% and the pest or weed control at 62 g/ha [10, 18] was 0%. It also gave a pest or weed control at 125 g/ha [10, 18] of 60%, a pest or weed control at 250 g/ha ([10]; pre-emergence, Preemergence) of 80% and a pest or weed control at 500 g/ha ([10]; pre-emergence, Preemergence) of 0%. For the same molecule, the pest or weed control at 62 g/ha [11, 19] was 0%, the pest or weed control at 125 g/ha [11, 19] was 0% and the pest or weed control at 250 g/ha [11, 15] was 0%. For the same molecule, the pest or weed control at 500 g/ha [11, 15] was 5%, the pest or weed control at 62 g/ha [11, 20] was 0% and the pest or weed control at 125 g/ha [11, 20] was 0%. The pest or weed control at 250 g/ha ([11]; pre-emergence, Preemergence) was 0%, the pest or weed control at 500 g/ha ([11]; pre-emergence, Preemergence) was 0% and the pest or weed control at 62 g/ha [12, 21] was 60%. For the same molecule, the pest or weed control at 125 g/ha [12, 21] was 70%, the pest or weed control at 250 g/ha [12, 15] was 75% and the pest or weed control at 500 g/ha [12, 15] was 80%. For the same molecule, the pest or weed control at 62 g/ha [12, 22] was 75%, the pest or weed control at 125 g/ha [12, 22] was 100% and the pest or weed control at 250 g/ha ([12]; pre-emergence, Preemergence) was 100%. The pest or weed control at 500 g/ha ([12]; pre-emergence, Preemergence) was 100%, the pest or weed control at 62 g/ha [13, 23] was 75% and the pest or weed control at 125 g/ha [13, 23] was 75%. The pest or weed control at 250 g/ha [13, 15] was 80%, the pest or weed control at 500 g/ha [13, 15] was 85% and the pest or weed control at 62 g/ha [13, 24] was 75%. For the same molecule, the pest or weed control at 125 g/ha [13, 24] was 50%, the pest or weed control at 250 g/ha ([13]; pre-emergence, Preemergence) was 85% and the pest or weed control at 500 g/ha ([13]; pre-emergence, Preemergence) was 98%.
